Test results as given in patent US20040122089A1, “Novel eicosanoid analgesics” (priority 2001, published 2004).
Like-named read-outs stand apart in the source and are kept apart here.

What was measured:
CB1 receptors [1] = target: T1, CB1 receptors (Rattus norvegicus, UniProt P20272); test: Agonist-stimulated [35S]GTPγS binding, rat hippocampal membranes; conditions: for Emax: read-out: GTPγS binding (Emax)
mice [2] = test: Mouse 'tetrad' of tests after i.v. administration (Example 2); conditions: Mus musculus, iv
[3] = target: T2, fatty acid amide hydrolase (FAAH) (Mus musculus, UniProt O08914); test: [14C]AEA hydrolysis by N18TG2 cell membranes; type: biochemical
T2 construct: membranes prepared from N18TG2 cells; endogenous in cells; host or cells: N18TG2 cell membranes
T2 sequence (O08914 1-579): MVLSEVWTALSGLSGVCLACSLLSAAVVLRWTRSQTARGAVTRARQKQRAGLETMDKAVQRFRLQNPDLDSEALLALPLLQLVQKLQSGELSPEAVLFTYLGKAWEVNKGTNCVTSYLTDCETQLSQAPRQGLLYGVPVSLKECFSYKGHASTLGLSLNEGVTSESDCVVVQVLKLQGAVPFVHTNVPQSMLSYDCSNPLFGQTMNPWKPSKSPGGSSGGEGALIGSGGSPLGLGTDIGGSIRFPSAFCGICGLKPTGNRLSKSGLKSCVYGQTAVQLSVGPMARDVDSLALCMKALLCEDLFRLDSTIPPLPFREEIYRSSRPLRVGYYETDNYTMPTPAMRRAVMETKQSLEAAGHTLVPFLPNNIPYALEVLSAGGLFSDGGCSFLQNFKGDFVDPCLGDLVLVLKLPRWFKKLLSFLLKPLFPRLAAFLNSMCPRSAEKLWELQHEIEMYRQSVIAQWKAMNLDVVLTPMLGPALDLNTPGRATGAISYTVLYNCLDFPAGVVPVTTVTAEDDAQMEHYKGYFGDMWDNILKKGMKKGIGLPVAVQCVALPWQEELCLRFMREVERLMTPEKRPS
Description: (§1) The effect of compounds on the enzymatic hydrolysis of [^14C] AEA (6 μM) was studied by using membranes prepared from N18TG2 cells incubated with increasing concentrations of compounds in 50 mM Tris-HCL, pH 9, for 30 min at 37° C. [^14C] Ethanolamine produced from [^14C] AEA hydrolysis was quantified by scintillation spectroscopy and used to measure fatty acid amide hydrolase (FAAH) activity. The effect of compounds on the uptake of AEA by RBL-2H3 cells was studied with a procedure analogous to that described in Melck, ibid., and modified as described in Hilliard et al., J. Neurochem. 69:631-638 (1997). Cells were incubated with [^14C] AEA (4μM) for 5 min. at 37° C., in the presence or absence of varying concentrations of the inhibitors. Residual [1^4C] AEA in the incubation media after extraction with CHCl3/CH30H (2:1 by volume) was used as a measure of the AEA that was taken up by cells.
Accordingly, when the compounds were tested for their capability of inhibiting [^14C] […] This is in agreement with previous observations that Me-AEA, DMH-derivatives of AEA and arvanil are poor substrates for FAAH. The two exceptions were O-1856 and O-1895, which did inhibit the hydrolysis of [^14C] AEA, although not very potently.

[4] = tested on: anandamide membrane transporter (AMT); type: cell-based, rat; conditions: [14C]AEA uptake, RBL-2H3 cells
Description: as §1
In consideration of the potent inhibition of the AMT previously observed with arvanil and its derivatives (see Melck, ibid), the seven compounds were also tested for their inhibitory effect on [^4C] […] Thus, the results in Table 1 confirm the existence of a partial overlap between the ligand recognition properties of VR1 receptors and the AMT (14.24).

CB2 receptors = target: T3, CB2 receptors (Rattus norvegicus, UniProt Q9QZN9); test: CB2 binding, displacement of [3H]WIN55,212-2 from rat spleen membranes
T3 construct: rat spleen membranes, which contain mostly CB2 receptors; from tissue; host or cells: rat spleen membranes
T3 sequence (Q9QZN9 1-360): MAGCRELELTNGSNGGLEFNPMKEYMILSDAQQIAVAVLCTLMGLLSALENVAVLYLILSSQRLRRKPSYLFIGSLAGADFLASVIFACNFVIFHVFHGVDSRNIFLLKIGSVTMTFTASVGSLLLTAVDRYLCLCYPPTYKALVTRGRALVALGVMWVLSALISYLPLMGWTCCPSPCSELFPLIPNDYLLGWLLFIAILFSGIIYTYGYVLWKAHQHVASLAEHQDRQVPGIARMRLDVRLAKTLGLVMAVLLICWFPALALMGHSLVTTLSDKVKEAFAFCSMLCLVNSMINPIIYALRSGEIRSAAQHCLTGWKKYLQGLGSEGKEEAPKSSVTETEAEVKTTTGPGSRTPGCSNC
Description: (§2) For CB1 receptor binding, [^3H]CP-55,940 (Kd=[…]) was incubated with P2 membranes from whole rat brains as described in Compton et al., J. Pharm. Exp. Ther. 265:218-226 (1993). Displacement curves were generated by incubating drugs with 1 nM of [^3H]CP-55,940. The assays were performed in triplicate, and the results represent the combined data from three individual experiments. A separate set of experiments were conducted in which phenylmthylsulfonylfluoride (PMSF) was added at a concentration of 100 μm in order to prevent possible metabolism of the analogs. CB2 binding assays were performed as described in Melek et al., ibid. In all cases, Ki values were calculated applying the Cheng-Prusoff equation to the IC50 values (obtained by GraphPad) for the displacement of the bound radioligand by increasing concentrations of the test compounds.
(§3) In Table 1, affinity for CB1 and CB2 receptors was measured in displacement assays carried out using rat brain or spleen membranes and [^3H]CP 55,940 or […], respectively. Potency at human VR1 was established by measuring the stimulatory activity of the compounds on the Ca^2+ intracellular concentration in HEK cells transfected with cDNA encoding the human VR1 receptor. Efficacy at VR1 was measured by expressing the effect of a maximal concentration of each compound (usually 10 μM) as percent of the maximal possible effect obtained with 4 μM ionomycin. Data are means ±SEM of at least n=3 separate determinations. *Ki was determined in the presence of PMSF.
The hydroxy analog is much less CB1 vs. CB2 selective in both series.

CB1 receptors [5] = target: T1, CB1 receptors; test: CB1 receptor binding, displacement of [3H]CP-55,940 from rat brain P2 membranes (Example 2); set-up: from tissue; host or cells: whole rat brain membranes; conditions: CB1 (Ki, nM), rat brain membranes
Description: as §2, §3

human VR1 receptor [6] = target: T4, human VR1 receptor (Homo sapiens, UniProt Q8NER1); test: Ca2+ influx (Fluo-3) in HEK-hVR1 cells (Example 2); type: cell-based; set-up: expressed in transfected cells; host or cells: HEK 293 cells (HEK-hVR1)
Description: N18TG2 and RBL-2H3 cells were grown as described in Melck et al, Bioch. Biophys. Res. Commun. 262:275-284 (1999). Ionomycin was purchased from Sigma. DMH-arvanil, and six substituted dimethylpentyl (DMP) derivatives of arvanil and met-AEA were synthesized as described in Example 1.
HEK-hVR1 cells were prepared and loaded as described in De Petrocellis, et al., FEBS Lett. 483:52-56 (2000). Experiments were carried out by measuring fluorescence at 25° C. […] Capsazepine (1-5 μM) was added 30 minu. Before the test compounds.
as §3

FAAH = target: T5, FAAH (Rattus norvegicus, UniProt P97612); test: Fatty acid amide hydrolase assay, rat brain membranes; type: biochemical
T5 construct: membranes prepared from frozen brains of CD rats (Charles River, France); from tissue; host or cells: brain membranes of CD rats
T5 sequence (P97612 1-579): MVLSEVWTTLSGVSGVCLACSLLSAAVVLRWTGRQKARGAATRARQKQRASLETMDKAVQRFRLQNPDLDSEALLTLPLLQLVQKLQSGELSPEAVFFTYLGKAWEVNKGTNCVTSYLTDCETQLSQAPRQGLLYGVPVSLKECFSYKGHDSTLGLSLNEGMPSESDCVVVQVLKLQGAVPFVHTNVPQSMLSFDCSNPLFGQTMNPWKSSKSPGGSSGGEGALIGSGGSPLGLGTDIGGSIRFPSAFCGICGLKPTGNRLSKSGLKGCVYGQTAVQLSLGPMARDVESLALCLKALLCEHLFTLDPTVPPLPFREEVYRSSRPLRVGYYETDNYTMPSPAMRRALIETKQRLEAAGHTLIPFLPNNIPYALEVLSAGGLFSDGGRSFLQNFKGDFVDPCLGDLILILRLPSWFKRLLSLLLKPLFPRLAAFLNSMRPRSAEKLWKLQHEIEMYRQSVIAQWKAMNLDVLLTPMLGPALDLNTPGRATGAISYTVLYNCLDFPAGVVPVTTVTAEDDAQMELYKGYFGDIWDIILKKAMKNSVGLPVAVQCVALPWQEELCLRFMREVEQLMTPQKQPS
Description: Fatty acid amide hydrolase assay—The effect of compounds on the enzymatic hydrolysis of AEA was studied using membranes prepared from frozen brains of CD rats (Charles River, France), incubated with the test compounds and [^14C] AEA (9 μM) in 50 mM Tris-HCl, pH 9, for 30 min at 37° C. [^14C] Ethanolamine produced from [^14C] AEA hydrolysis was measured by scintillation counting of the aqueous phase after extraction of the incubation mixture with 2 volumes of CHCl3/CH3OH 2:1 (by vol.).
(§4) CP55940 from whole rat brain membranes.

mice [7] = test: Mouse tetrad of behavioral tests, i.v. (Example 3); type: in vivo; conditions: i.v.; for R.I. ED50 / Rectal temp. ED50 / Spontan. activity ED50 / Tail Flick ED50: mean (range)
Description: The analogs were administered to mice by tail-vein injection and evaluated for their ability to produce hypomotility, hypothermia, and antinociception. These pharmacological measures were determined in the same mouse at a time when maximal activity was present. […] A 10-sec maximum latency was used. Antinociception was expressed as % MPE as described below.
Data Analysis—For production of hypomotility and hypothermia, the data were expressed as a percentage of control activity and change in temperature, respectively. Antinociception was calculated according to the following equation.
% MPE=−((test latency-control latency)/(10s-control latency))×100
At least six animals were treated with each dose-response relationships could be determined for each analog. ED50 values were determined from least-squares unweighted linear regression analysis of log dose-response plots.
The ED50 (milligrams per kilogram, i.v.) does for inhibition of sector crossings (spontaneous activity) in an open field, antinociception (delay in seconds in the tail-flick response), decrease of rectal temperature in degrees Celsius, and induction of time spent in immobility on a ring are shown. Data are means (and ranges) of N>six animals.

AMT = type: cell-based, rat; conditions: [14C]AEA uptake, RBL-2H3 cells; read-out: AEA transport (IC50)
Description: AEA. Cells were incubated with [^14C] AEA for 5 min at 37° C., in the presence or absence of varying concentrations of the inhibitors. Residual [^14C] AEA in the incubation media after extraction with CHCl3/CH3OH 2:1 (by vol.), determined by scintillation counting of the lyophilized organic phase, was used as a measure of the AEA that was taken up by cells.
as §4

human VR1 receptor [8] = target: T4, human VR1 receptor; test: Cytosolic calcium concentration assay in HEK-hVR1 cells (Example 3); conditions: for Emax: read-out: hVR1 efficacy (maximal effect, in parentheses)
CB1 receptors [9] = target: T1, CB1 receptors; test: CB1 receptor binding, [3H]CP55940, whole rat brain membranes (Example 3); conditions: read-out: CB1 affinity Ki

T1 sequence (P20272 whole entry): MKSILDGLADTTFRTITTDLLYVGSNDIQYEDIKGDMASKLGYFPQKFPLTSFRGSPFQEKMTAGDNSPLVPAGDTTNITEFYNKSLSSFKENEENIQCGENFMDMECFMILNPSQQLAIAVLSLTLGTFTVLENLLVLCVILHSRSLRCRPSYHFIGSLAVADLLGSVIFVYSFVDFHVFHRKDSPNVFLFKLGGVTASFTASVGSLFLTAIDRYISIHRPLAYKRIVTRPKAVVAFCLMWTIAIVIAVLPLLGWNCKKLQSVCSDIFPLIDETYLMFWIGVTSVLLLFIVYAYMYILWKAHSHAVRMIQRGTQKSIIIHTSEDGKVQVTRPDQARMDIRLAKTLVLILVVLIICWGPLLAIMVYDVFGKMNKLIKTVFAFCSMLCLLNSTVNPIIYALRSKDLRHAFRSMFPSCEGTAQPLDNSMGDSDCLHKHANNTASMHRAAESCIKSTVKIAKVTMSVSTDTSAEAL
T4 sequence (Q8NER1 whole entry): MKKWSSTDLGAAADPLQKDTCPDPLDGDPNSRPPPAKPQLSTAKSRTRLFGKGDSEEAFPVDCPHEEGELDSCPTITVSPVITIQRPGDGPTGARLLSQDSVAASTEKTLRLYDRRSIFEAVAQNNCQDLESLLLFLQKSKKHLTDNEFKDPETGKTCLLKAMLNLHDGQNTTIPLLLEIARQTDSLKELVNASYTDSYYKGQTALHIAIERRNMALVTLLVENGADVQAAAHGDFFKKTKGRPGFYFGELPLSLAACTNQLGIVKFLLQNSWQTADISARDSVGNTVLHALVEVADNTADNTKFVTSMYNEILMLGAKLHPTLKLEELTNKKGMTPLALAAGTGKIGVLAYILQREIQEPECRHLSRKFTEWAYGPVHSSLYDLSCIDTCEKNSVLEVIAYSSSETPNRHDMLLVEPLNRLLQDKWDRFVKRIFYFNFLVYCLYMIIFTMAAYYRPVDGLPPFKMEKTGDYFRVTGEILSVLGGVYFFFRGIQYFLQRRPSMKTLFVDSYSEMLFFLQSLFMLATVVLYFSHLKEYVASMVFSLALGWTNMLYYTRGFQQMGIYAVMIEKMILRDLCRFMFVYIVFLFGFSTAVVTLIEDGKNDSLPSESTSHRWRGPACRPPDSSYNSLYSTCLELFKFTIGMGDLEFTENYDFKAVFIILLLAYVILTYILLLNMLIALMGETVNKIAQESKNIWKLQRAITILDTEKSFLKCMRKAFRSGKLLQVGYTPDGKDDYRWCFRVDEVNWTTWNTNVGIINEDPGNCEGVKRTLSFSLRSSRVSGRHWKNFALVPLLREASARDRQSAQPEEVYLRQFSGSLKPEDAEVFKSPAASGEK

COc1cc(CNC(=O)CCC/C=C\C/C=C\C/C=C\C/C=C\C(C)(C)CCCCBr)ccc1O [Compound O-1861, 20-Bromo-16,16-dimethyl-eicosa-5,8,11,14-all-cis-tetraenoic acid (4-hydroxy-3-methoxy-benzyl) amide]
EC50 (CB1 receptors [1]): 0.07 µM | Emax (CB1 receptors [1]): 32% | ED50 (mice [2]; read-out: Average ED50 for the four effects): 0.068 mg/kg | ED50 (mice [2]; read-out: R.I. (relative immobility) ED50): 0.055 mg/kg | ED50 (mice [2]; read-out: R.T. (rectal temperature) ED50): 0.053 mg/kg | ED50 (mice [2]; read-out: S.A. (spontaneous activity) ED50): 0.06 mg/kg | ED50 (mice [2]; read-out: T.F. (tail-flick) ED50): 0.104 mg/kg | IC50 [3]: > 50 µM | IC50 [4]: 13.5 µM | Ki (CB2 receptors): > 10 µM | Ki (CB1 receptors [5]; determined in the presence of PMSF, [3H]CP 55,940, PMSF 100 μM): 24.3 ± 2.6 nM | Ki (CB1 receptors [5]; [3H]CP 55,940, without PMSF): 32.6 ± 1.2 nM | EC50 (human VR1 receptor [6]; VR1 (EC50, nM), Ca2+ in HEK cells with human VR1): 30 ± 0.2 nM | VR1 efficacy (human VR1 receptor [6]; maximal concentration (usually 10 μM), percent of effect of 4 μM ionomycin): 74.0 ± 4.5%

CCCCC/C=C\C/C=C\C/C=C\C/C=C\CCCC(=O)NCc1cccc(OC)c1 [Compound O-1986]
Emax (CB1 receptors [1]): 0% | IC50 (FAAH): 18.2 ± 2.8 µM | Average ED50 (mice [7]): 5.80 milligrams per kilogram | R.I. ED50 (mice [7]): 6.13 (4.79-7.83) milligrams per kilogram | Rectal temp. ED50 (mice [7]): 6.15 (3.22-11.73) milligrams per kilogram | Spontan. activity ED50 (mice [7]): 4.74 (3.17-7.09) milligrams per kilogram | Tail Flick ED50 (mice [7]): 6.15 (4.63-8.16) milligrams per kilogram | IC50 (AMT): 27.3 ± 3.5 µM | EC50 (human VR1 receptor [8]): 0.063 ± 0.0101 µM | fold less potent than arvanil at hVR1 (human VR1 receptor [8]): more than 100 fold | Emax (human VR1 receptor [8]): 68% | Ki (CB1 receptors [9]): 0.484 ± 0.017 µM

CCCCC/C=C\C/C=C\C/C=C\C/C=C\CCCNC(=O)NCc1ccc(O)c(OC)c1 [Compound O-1987]
Emax (CB1 receptors [1]): 0% | IC50 (FAAH): 2 ± 0.4 µM | Average ED50 (mice [7]): 0.09 milligrams per kilogram | R.I. ED50 (mice [7]): 0.09 (0.06-0.12) milligrams per kilogram | Rectal temp. ED50 (mice [7]): 0.08 (0.03-0.20) milligrams per kilogram | Spontan. activity ED50 (mice [7]): 0.06 (0.04-0.08) milligrams per kilogram | Tail Flick ED50 (mice [7]): 0.12 (0.08-0.17) milligrams per kilogram | IC50 (AMT): 19.3 ± 3.3 µM | EC50 (human VR1 receptor [8]): 0.0007 ± 0.0002 µM | Emax (human VR1 receptor [8]): 80.6% | Ki (CB1 receptors [9]): 1.72 ± 0.2 µM
